From patent publication US6897228B2, “Pyridoxine and pyridoxal analogues: new uses” (Medicure International Inc., priority 2000, dated 2005)
Marks after values point to notes of the source that are not given here.

What was measured:
[1] = system: platelets (platelet rich plasma); assay: Inhibition of platelet aggregation (aggregometer, platelet rich plasma); format: cell-based; conditions: for Extent of aggregation as a percentage amplitude, 1 μg/mL collagen: agonist 1 μg/mL collagen; for Extent of aggregation as a percentage amplitude, 4 μM ADP: agonist 4 μM ADP; for Extent of aggregation as a percentage amplitude, 5 μg/mL collagen: agonist 5 μg/mL collagen; for Extent of aggregation as a percentage amplitude, 12 μM TRAP: agonist 12 μM TRAP
Experimental: Platelet rich plasma (PRP) was obtained by drawing whole blood into sodium citrate tubes (3.2%) and centrifuging at 700 rpm for 10 minutes. Platelet poor plasma (PPP) was obtained by centrifuging the remainder of the sample ntil the platelets were removed (3200 rpm for 10 minutes). The PRP was adjusted to a count of 280×10^9/L using a mixture of PRP and PPP. The incubation mixture consisted of 200 μL of platelets and 25 μL of the appropriate compound (18 mM stock for a final concentration of 2 mM and 4.5 mM stock for a final concentration of 500 μM), rendering an approximate final platelet count in the incubation mixture of 250×10^9/L. After incubation (30 minutes at room temperature, the cuvettes were incubated for 3 minutes at 37° C., transferred to the mixing wells and after the baselines transmittances were measured in an aggregometer (Chrono-Log 4), 25 μL of agonist was added to give a final concentration of 4 μM ADP, 1 μg/mL collagen, 5 μg/mL collagen or 12 μM thrombin receptor activating peptide (TRAP). Final transmittances were then measured in the aggregometer (lower percent transmittance represents higher aggregation). […] Table 24-1 gives the results of the extent of aggregation for several compounds as percentage amplitude read directly from the aggregometer.

[2] = system: Male Wistar rats, embolic focal cerebral ischemia (MCA); assay: Neuroprotection in rat embolic stroke model; format: in vivo; conditions: for infarction volume: 48 h, mean±SEM; for Hemorrhage rate / Mortality rate (pre-mature death) / Seizure occurrence: n=10; for Neurological deficits (modified Bederson score): median (25-75th percentile)
Source text: Male Wistar rats, weighting 300-350 g, were purchased from Charles River, St. Constant, Canada. Embolic focal cerebral ischemia was induced by embolizing a preformed clot into the middle cerebral artery (MCA). (For details of the procedure see Wang C X, Yang Y, Shuaib A. A focal embolic model of cerebral ischemia in rats. Brain Res. Protoc. 7:115-120, 2001. Wang C, Yang T and Shuaib A: An improved version of embolic model of brain ischemic injury in the rat. J. Neurosci. Meth. 109:147-151, 2001).
The study consisted of four groups (n=10). Animals were randomly assigned to one of the four groups. Treatments were started at 1 h after MCA occlusion. […] In the control group, 0.5% DMSO (1.5 ml) was infused.
The procedure for assessment of infarct volume were detailed previously (Bederson J B, Pitts L H, Tsuji M, Nishimura M C, Davis R L, Bartkowski H. Rat middle cerebral artery occlusion: evaluation of the model and development of a neurologic examination. Stroke 17:472-476, 1986. Yang, Y., Shuaib, A., and Li, Q. Quantification of infarct size on focal cerebral ischemia model of rats using a simple and economical method. J. Neurosci. Meth., 84:9-16, 1998). Briefly, at 48 h after ischemia the anesthetized animal was sacrificed by decapitation and the brain removed. The volume of infarction was measured in the brain sections stained with 2,3,5-triphenyltetrazolium chloride (TTC) solution with following formula, corrected infarct size=the volume of the left hemisphere−(the volume of the right hemisphere-measured infarct volume). The percentage of infarct volume was obtained by calculating the portion of the corrected infarct volume and dividing it by the total volume of the left hemisphere. Brain swelling was determined using a formula: swelling (edema)=(volume of the right hemisphere[…])/volume of the left hemisphere. Hemorrhage transformation was identified from the TTC stain brain sections.
Neurological deficits and seizure activities were recorded at 2, 24 and 48 hours after embolization. Neurological deficits were determined using a modified Bederson's scoring system (Bederson J B, Pitts L H, Tsuji M, Nishimura M C, Davis R L, Bartkowski H. Rat middle cerebral artery occlusion: evaluation of the model and development of a neurologic examination. Stroke (17:472-476, 1986). 0: no observable deficit; 1: forelimb flexion; 2: forelimb flexion plus decreased resistance to lateral push; 3: unidirectional circling; 4: unidirectional circling plus decreased level of consciousness. Seizure activity, hemorrhage and mortality were also recorded. […]. Results are shown in Table 25-1
The differences of infarction volume were analyzed with one way ANOVA followed by Dunnett's test. Neurological deficit scores were reported as medians and interquartile ranges, considering 25-75th percentile. The neurological scores were analyzed with Kruskal-Wallis test when more than two groups, and analyzed with Mann-Whitney test when comparison was done in two groups. The rates of mortality and seizure occurrence following different treatments were compared with Chi-square test. Differences were considered significant when p<0.05.

Cc1ncc(CNc2ccc(-c3ccc(C(=N)N)cc3)cc2)c(CO)c1O [Compound XL]
Extent of aggregation as a percentage amplitude, 1 μg/mL collagen ([1]; compound 500 μM): 4%
Extent of aggregation as a percentage amplitude, 4 μM ADP ([1]; compound 500 μM): 9%
Extent of aggregation as a percentage amplitude, 5 μg/mL collagen ([1]; compound 500 μM): 52%
Extent of aggregation as a percentage amplitude, 12 μM TRAP ([1]; compound 500 μM): 3%
Extent of aggregation as a percentage amplitude, 1 μg/mL collagen ([1]; compound 2 mM): 4%
Extent of aggregation as a percentage amplitude, 4 μM ADP ([1]; compound 2 mM): 4%
Extent of aggregation as a percentage amplitude, 5 μg/mL collagen ([1]; compound 2 mM): 5%
Extent of aggregation as a percentage amplitude, 12 μM TRAP ([1]; compound 2 mM): 4%
infarction volume ([2]; 10 mg/kg at 1 h after embolization, control 40±2.6%): 30.5±4.8%
Hemorrhage rate ([2]; 10 mg/kg group, control 1 rat): 2 rats
Mortality rate (pre-mature death) ([2]; 10 mg/kg group, control 1 rat): 1
Seizure occurrence ([2]; 10 mg/kg group, control 2 rats): 3 rats
Ischemic brain edema ([2]; 10 mg/kg, control 5.7±1.3): 6.8±1.9
Neurological deficits (modified Bederson score) ([2]; 10 mg, 2 h after injury): 3 (3-3)
Neurological deficits (modified Bederson score) ([2]; 10 mg, 24 h after injury): 2 (2-3)*
Neurological deficits (modified Bederson score) ([2]; 10 mg, 48 h after injury): 2 (2-3)*
Ischemic brain edema ([2]; 20 mg/kg): 5.9±1.3
infarction volume ([2]; 20 mg/kg at 1 h after embolization): 26.5±4.4%
Hemorrhage rate ([2]; 20 mg/kg group): 1 rat
Mortality rate (pre-mature death) ([2]; 20 mg/kg group): 1
Seizure occurrence ([2]; 20 mg/kg group): 2 rats
Neurological deficits (modified Bederson score) ([2]; 20 mg, 2 h after injury): 3 (3-3)
Neurological deficits (modified Bederson score) ([2]; 20 mg, 24 h after injury): 2 (2-3)*
Neurological deficits (modified Bederson score) ([2]; 20 mg, 48 h after injury): 2 (2-3)*
Ischemic brain edema ([2]; 40 mg/kg): 7.9±2.1
infarction volume ([2]; 40 mg/kg at 1 h after embolization): 25.9±3.4%
Hemorrhage rate ([2]; 40 mg/kg group): 2 rats
Seizure occurrence ([2]; 40 mg/kg group): 2 rats
Neurological deficits (modified Bederson score) ([2]; 40 mg, 2 h after injury): 3 (3-3)
Neurological deficits (modified Bederson score) ([2]; 40 mg, 24 h after injury): 2 (2-3)*
Neurological deficits (modified Bederson score) ([2]; 40 mg, 48 h after injury): 2.5 (2-2)*
